Test results reported in ChEMBL document CHEMBL5724806, “Unraveling interindividual differences and functional consequences of gut microbial metabolism of immunosuppressants” (2024).

Assays:
Assay type in all cases: ADME
[1] = (§1) The drug is tested on the gut metagenome community of A-07 with ENA study accession number: PRJEB31790 for biotransformation under microaerobic condition. The drug concentrations were measured over 7 timepoints collected between 0 and 12 hours of incubation by liquid-chromatography-coupled mass spectrometry (LC–MS); parameters: dose 5 uM, timepoint 0, 0.75, 1.5, 3, 6, 9, 12 hours; conditions: 5 µM
[2] = The drug is tested on Enterococcus faecalis strain: ATCC29212 for biotransformation under anaerobic condition. The drug concentrations were measured over 6 timepoints collected between 0 and 12 hours of incubation by liquid-chromatography-coupled mass spectrometry (LC–MS); parameters: dose 5 uM, timepoint 0, 1.5, 3, 6, 9, 12 hours; conditions: 5 µM
[3] = The drug is tested on Enterococcus faecalis strain: ATCC29212 for biotransformation under microaerobic condition. The drug concentrations were measured over 6 timepoints collected between 0 and 12 hours of incubation by liquid-chromatography-coupled mass spectrometry (LC–MS); parameters: dose 5 uM, timepoint 0, 1.5, 3, 6, 9, 12 hours; conditions: 5 µM
[4] = The drug is tested on Alloscardovia omnicolens strain: DSM21503 for biotransformation under microaerobic condition. The drug concentrations were measured over 6 timepoints collected between 0 and 12 hours of incubation by liquid-chromatography-coupled mass spectrometry (LC–MS); parameters: dose 5 uM, timepoint 0, 1.5, 3, 6, 9, 12 hours; conditions: 5 µM
[5] = The drug is tested on Clostridium scindens strain: DSM5676 for biotransformation under anaerobic condition. The drug concentrations were measured over 6 timepoints collected between 0 and 12 hours of incubation by liquid-chromatography-coupled mass spectrometry (LC–MS); parameters: dose 5 uM, timepoint 0, 1.5, 3, 6, 9, 12 hours; conditions: 5 µM
[6] = as §1, with “T-05” for “A-07”, “anaerobic” for “microaerobic”; parameters: dose 5 uM, timepoint 0, 0.75, 1.5, 3, 6, 9, 12 hours; conditions: 5 µM
[7] = as §1, with “A-05” for “A-07”, “anaerobic” for “microaerobic”; parameters: dose 5 uM, timepoint 0, 0.75, 1.5, 3, 6, 9, 12 hours; conditions: 5 µM
[8] = The drug is tested on Bacteroides fragilis strain: DSM2151 for biotransformation under anaerobic condition. The drug concentrations were measured over 6 timepoints collected between 0 and 12 hours of incubation by liquid-chromatography-coupled mass spectrometry (LC–MS); parameters: dose 5 uM, timepoint 0, 1.5, 3, 6, 9, 12 hours; conditions: 5 µM
[9] = as §1, with “P-01” for “A-07”, “anaerobic” for “microaerobic”; parameters: dose 5 uM, timepoint 0, 0.75, 1.5, 3, 6, 9, 12 hours; conditions: 5 µM
[10] = The drug is tested on Faecalibacterium prausnitzii strain: DSM17677 for biotransformation under anaerobic condition. The drug concentrations were measured over 6 timepoints collected between 0 and 12 hours of incubation by liquid-chromatography-coupled mass spectrometry (LC–MS); parameters: dose 5 uM, timepoint 0, 1.5, 3, 6, 9, 12 hours; conditions: faecalibacterium duncaniae, 5 µM
[11] = as §1, with “P-02” for “A-07”; parameters: dose 5 uM, timepoint 0, 0.75, 1.5, 3, 6, 9, 12 hours; conditions: 5 µM
[12] = as §1, with “A-04” for “A-07”; parameters: dose 5 uM, timepoint 0, 0.75, 1.5, 3, 6, 9, 12 hours; conditions: 5 µM
[13] = The drug is tested on Lactobacillus ruminis strain: ATCC25644 for biotransformation under anaerobic condition. The drug concentrations were measured over 6 timepoints collected between 0 and 12 hours of incubation by liquid-chromatography-coupled mass spectrometry (LC–MS); parameters: dose 5 uM, timepoint 0, 1.5, 3, 6, 9, 12 hours; conditions: ligilactobacillus ruminis, 5 µM
[14] = as §1, with “A-01” for “A-07”, “anaerobic” for “microaerobic”; parameters: dose 5 uM, timepoint 0, 0.75, 1.5, 3, 6, 9, 12 hours; conditions: 5 µM
[15] = The drug is tested on Prevotella copri strain: DSM18205 for biotransformation under anaerobic condition. The drug concentrations were measured over 6 timepoints collected between 0 and 12 hours of incubation by liquid-chromatography-coupled mass spectrometry (LC–MS); parameters: dose 5 uM, timepoint 0, 1.5, 3, 6, 9, 12 hours; conditions: segatella copri, 5 µM
[16] = The drug is tested on Streptococcus mitis strain: DSM12643 for biotransformation under microaerobic condition. The drug concentrations were measured over 6 timepoints collected between 0 and 12 hours of incubation by liquid-chromatography-coupled mass spectrometry (LC–MS); parameters: dose 5 uM, timepoint 0, 1.5, 3, 6, 9, 12 hours; conditions: 5 µM
[17] = as §1, with “P-02” for “A-07”, “anaerobic” for “microaerobic”; parameters: dose 5 uM, timepoint 0, 0.75, 1.5, 3, 6, 9, 12 hours; conditions: 5 µM
[18] = The drug is tested on Streptococcus salivarius strain: DSM20560 for biotransformation under anaerobic condition. The drug concentrations were measured over 6 timepoints collected between 0 and 12 hours of incubation by liquid-chromatography-coupled mass spectrometry (LC–MS); parameters: dose 5 uM, timepoint 0, 1.5, 3, 6, 9, 12 hours; conditions: 5 µM
[19] = as §1, with “A-04” for “A-07”, “anaerobic” for “microaerobic”; parameters: dose 5 uM, timepoint 0, 0.75, 1.5, 3, 6, 9, 12 hours; conditions: 5 µM
[20] = as §1, with “A-10” for “A-07”; parameters: dose 5 uM, timepoint 0, 0.75, 1.5, 3, 6, 9, 12 hours; conditions: 5 µM
[21] = as §1, with “A-09” for “A-07”; parameters: dose 5 uM, timepoint 0, 0.75, 1.5, 3, 6, 9, 12 hours; conditions: 5 µM
[22] = The drug is tested on Bacteroides uniformis strain: DSM6597 for biotransformation under anaerobic condition. The drug concentrations were measured over 6 timepoints collected between 0 and 12 hours of incubation by liquid-chromatography-coupled mass spectrometry (LC–MS); parameters: dose 5 uM, timepoint 0, 1.5, 3, 6, 9, 12 hours; conditions: 5 µM
[23] = as §1, with “T-05” for “A-07”; parameters: dose 5 uM, timepoint 0, 0.75, 1.5, 3, 6, 9, 12 hours; conditions: 5 µM
[24] = The drug is tested on Dorea formicigenerans strain: DSM3992 for biotransformation under anaerobic condition. The drug concentrations were measured over 6 timepoints collected between 0 and 12 hours of incubation by liquid-chromatography-coupled mass spectrometry (LC–MS); parameters: dose 5 uM, timepoint 0, 1.5, 3, 6, 9, 12 hours; conditions: 5 µM
[25] = The drug is tested on Capnocytophaga ochracea strain: DSM7271 for biotransformation under microaerobic condition. The drug concentrations were measured over 6 timepoints collected between 0 and 12 hours of incubation by liquid-chromatography-coupled mass spectrometry (LC–MS); parameters: dose 5 uM, timepoint 0, 1.5, 3, 6, 9, 12 hours; conditions: 5 µM
[26] = The drug is tested on Bacteroides thetaiotaomicron strain: DSM2079 for biotransformation under anaerobic condition. The drug concentrations were measured over 6 timepoints collected between 0 and 12 hours of incubation by liquid-chromatography-coupled mass spectrometry (LC–MS); parameters: dose 5 uM, timepoint 0, 1.5, 3, 6, 9, 12 hours; conditions: 5 µM
[27] = The drug is tested on Actinomyces graevenitzii strain: DSM15540 for biotransformation under microaerobic condition. The drug concentrations were measured over 6 timepoints collected between 0 and 12 hours of incubation by liquid-chromatography-coupled mass spectrometry (LC–MS); parameters: dose 5 uM, timepoint 0, 1.5, 3, 6, 9, 12 hours; conditions: 5 µM
[28] = The drug is tested on Lactobacillus ruminis strain: ATCC25644 for biotransformation under microaerobic condition. The drug concentrations were measured over 6 timepoints collected between 0 and 12 hours of incubation by liquid-chromatography-coupled mass spectrometry (LC–MS); parameters: dose 5 uM, timepoint 0, 1.5, 3, 6, 9, 12 hours; conditions: ligilactobacillus ruminis, 5 µM
[29] = The drug is tested on Roseburia intestinalis strain: DSM14610 for biotransformation under anaerobic condition. The drug concentrations were measured over 6 timepoints collected between 0 and 12 hours of incubation by liquid-chromatography-coupled mass spectrometry (LC–MS); parameters: dose 5 uM, timepoint 0, 1.5, 3, 6, 9, 12 hours; conditions: 5 µM
[30] = The drug is tested on Alloscardovia omnicolens strain: DSM21503 for biotransformation under anaerobic condition. The drug concentrations were measured over 6 timepoints collected between 0 and 12 hours of incubation by liquid-chromatography-coupled mass spectrometry (LC–MS); parameters: dose 5 uM, timepoint 0, 1.5, 3, 6, 9, 12 hours; conditions: 5 µM

Bacterial Biotransformation [1]	Bacterial Biotransformation [2]	Bacterial Biotransformation [3]	Bacterial Biotransformation [4]	Bacterial Biotransformation [5]	Bacterial Biotransformation [6]	Bacterial Biotransformation [7]	Bacterial Biotransformation [8]	Bacterial Biotransformation [9]	Bacterial Biotransformation [10]	Bacterial Biotransformation [11]	Bacterial Biotransformation [12]	Bacterial Biotransformation [13]	Bacterial Biotransformation [14]	Bacterial Biotransformation [15]	Bacterial Biotransformation [16]	Bacterial Biotransformation [17]	Bacterial Biotransformation [18]	Bacterial Biotransformation [19]	Bacterial Biotransformation [20]	SMILES	further results
Compound metabolized	Compound metabolized	Compound metabolized	Compound NOT metabolized	Compound NOT metabolized	Compound metabolized	Compound metabolized	Compound NOT metabolized	Compound metabolized	Compound metabolized	Compound metabolized	Compound metabolized	Compound metabolized	Compound metabolized	Compound metabolized	Compound metabolized	Compound metabolized	Compound metabolized	Compound metabolized	Compound metabolized	COc1c(C)c2c(c(O)c1C/C=C(\C)CCC(=O)OCCN1CCOCC1)C(=O)OC2 [MYCOPHENOLATE MOFETIL]	Bacterial Biotransformation [21]: Compound metabolized; Bacterial Biotransformation [22]: Compound metabolized; Bacterial Biotransformation [23]: Compound metabolized; Bacterial Biotransformation [24]: Compound NOT metabolized; Bacterial Biotransformation [25]: Compound metabolized; Bacterial Biotransformation [26]: Compound NOT metabolized; Bacterial Biotransformation [27]: Compound metabolized; Bacterial Biotransformation [28]: Compound metabolized; Bacterial Biotransformation [29]: Compound NOT metabolized; Bacterial Biotransformation [30]: Compound metabolized
Compound metabolized	Compound metabolized	Compound metabolized	Compound NOT metabolized	Compound metabolized	Compound metabolized	Compound metabolized	Compound metabolized	Compound metabolized	Compound metabolized	Compound NOT metabolized	Compound metabolized	Compound NOT metabolized	Compound NOT metabolized	Compound metabolized	Compound NOT metabolized	Compound NOT metabolized	Compound metabolized	Compound metabolized	Compound NOT metabolized	Cn1cnc([N+](=O)[O-])c1Sc1ncnc2nc[nH]c12 [AZATHIOPRINE]	Bacterial Biotransformation [21]: Compound metabolized; Bacterial Biotransformation [22]: Compound metabolized; Bacterial Biotransformation [23]: Compound NOT metabolized; Bacterial Biotransformation [24]: Compound metabolized; Bacterial Biotransformation [25]: Compound metabolized; Bacterial Biotransformation [26]: Compound metabolized; Bacterial Biotransformation [27]: Compound metabolized; Bacterial Biotransformation [28]: Compound metabolized; Bacterial Biotransformation [29]: Compound metabolized; Bacterial Biotransformation [30]: Compound metabolized
Compound metabolized	Compound metabolized	Compound NOT metabolized	Compound NOT metabolized	Compound metabolized	Compound NOT metabolized	Compound metabolized	Compound NOT metabolized	Compound NOT metabolized	Compound NOT metabolized	Compound NOT metabolized	Compound metabolized	Compound NOT metabolized	Compound metabolized	Compound NOT metabolized	Compound NOT metabolized	Compound NOT metabolized	Compound NOT metabolized	Compound metabolized	Compound NOT metabolized	CO[C@H]1C[C@@H]2CC[C@@H](C)[C@@](O)(O2)C(=O)C(=O)N2CCCC[C@H]2C(=O)O[C@H]([C@H](C)C[C@@H]2CC[C@@H](OCCO)[C@H](OC)C2)CC(=O)[C@H](C)/C=C(\C)[C@@H](O)[C@@H](OC)C(=O)[C@H](C)C[C@H](C)/C=C/C=C/C=C/1C [EVEROLIMUS]	Bacterial Biotransformation [21]: Compound metabolized; Bacterial Biotransformation [22]: Compound NOT metabolized; Bacterial Biotransformation [23]: Compound NOT metabolized; Bacterial Biotransformation [24]: Compound metabolized; Bacterial Biotransformation [25]: Compound NOT metabolized; Bacterial Biotransformation [26]: Compound NOT metabolized; Bacterial Biotransformation [27]: Compound NOT metabolized; Bacterial Biotransformation [28]: Compound NOT metabolized; Bacterial Biotransformation [29]: Compound metabolized; Bacterial Biotransformation [30]: Compound NOT metabolized
